From patent US20190048016A1, “SUBSTITUTED BRIDGED UREA ANALOGS AS SIRTUIN MODULATORS” (GlaxoSmithKline Intellectual Property(No.2)Limited, priority 2014, published 2019)

Target: T1, SIRT1 (Homo sapiens, UniProt Q96EB6)
T1 sequence (Q96EB6 1-747): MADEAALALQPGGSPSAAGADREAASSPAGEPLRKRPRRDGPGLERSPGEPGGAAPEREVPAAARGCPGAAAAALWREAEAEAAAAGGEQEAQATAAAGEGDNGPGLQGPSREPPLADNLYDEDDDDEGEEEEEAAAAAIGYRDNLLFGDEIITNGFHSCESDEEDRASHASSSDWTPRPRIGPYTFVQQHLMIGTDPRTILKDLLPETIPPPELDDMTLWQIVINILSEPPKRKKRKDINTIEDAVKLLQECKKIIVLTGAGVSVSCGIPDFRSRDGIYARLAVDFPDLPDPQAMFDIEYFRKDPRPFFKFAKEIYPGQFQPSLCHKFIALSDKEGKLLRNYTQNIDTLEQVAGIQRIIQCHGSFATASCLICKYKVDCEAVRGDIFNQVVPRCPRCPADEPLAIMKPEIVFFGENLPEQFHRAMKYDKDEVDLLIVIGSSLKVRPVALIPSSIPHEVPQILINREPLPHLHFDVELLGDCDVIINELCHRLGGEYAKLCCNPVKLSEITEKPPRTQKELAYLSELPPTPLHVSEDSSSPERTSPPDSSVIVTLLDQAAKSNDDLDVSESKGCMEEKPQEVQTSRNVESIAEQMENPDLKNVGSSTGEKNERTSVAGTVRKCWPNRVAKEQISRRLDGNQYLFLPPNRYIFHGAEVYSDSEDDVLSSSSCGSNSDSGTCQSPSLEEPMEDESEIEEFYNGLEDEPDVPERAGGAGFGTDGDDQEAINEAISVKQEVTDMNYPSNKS
Assay: Trp mass spectrometry assay of SIRT1 activation (deacetylation of Ac-R-H-K-K(Ac)-W-NH2 peptide, OAADPR formation)
Assay type: biochemical
Conditions: Trp peptide 0.5 μM, 120 μM βNAD+, 10 nM SIRT1, 25 min, 25° C.; for Emax: 25 min, read-out: TRP MAX RESP (percent maximum fold activation relative to control = 100%)
Text: Mass spectrometry based assays were used to identify modulators of SIRT1 activity. The TAMRA based assay utilized a peptide having 20 amino acid residues as follows: Ac-EE-K(biotin)-[…](Ac)NleSTEG-K(5TMR)-EE-NH2 (SEQ ID NO: 1), wherein K(Ac) is an acetylated lysine residue and Nle is a norleucine. The peptide was labeled with the fluorophore 5TMR (excitation 540 nm/emission 580 nm) at the C-terminus. The sequence of the peptide substrate was based on p53 with several modifications. In addition, the methionine residue naturally present in the sequence was replaced with the norleucine because the methionine may be susceptible to oxidation during synthesis and purification. The Trp based assay utilized a peptide having an amino acid residues as follows: Ac-R-H-K-K(Ac)-W-NH2 (SEQ ID NO: 2).
The Trp mass spectrometry assay was conducted as follows. 0.5 μM peptide substrate and 120 μM βNAD^+ were incubated with 10 nM SIRT1 for 25 minutes at 25° C. in a reaction buffer (50 mM HEPES pH 7.5, […], 1 mM DTT, 0.05% BSA). The SIRT1 protein was obtained by cloning the SirT1 gene into a T7-promoter containing vector, which was then expressed in BL21(DE3) bacterial cells and purified as described in further detail below. Test compound was added at varying concentrations to this reaction mixture and the resulting reactions were monitored. After the 25 minute incubation with SIRT1, 10 μL of 10% formic acid was added to stop the reaction. The resulting reactions were sealed and frozen for later mass spec analysis. The relative SIRT1 activity was then determined by measuring the amount of O-acetyl-ADP-ribose (OAADPR) formed (or, alternatively, the amount of deacetylated Trp peptide generated) by the NAD-dependent sirtuin deacetylation reaction in the presence of varying concentrations of the test compound versus control reactions lacking the test compound. The degree to which the test agent activated deacetylation by SIRT1 was expressed as EC1.5 (i.e., the concentration of compound required to increase SIRT1 activity by 50% over the control lacking test compound), and Percent Maximum Activation (i.e., the maximum activity relative to control (100%) obtained for the test compound).
A control for inhibition of sirtuin activity was conducted by adding 1 μL of 500 mM nicotinamide as a negative control at the start of the reaction (e.g., permits determination of maximum sirtuin inhibition). A control for activation of sirtuin activity was conducted using 10 nM of sirtuin protein, with 1 μL of DMSO in place of compound, to determine the amount of deacetylation of the substrate at a given time point within the linear range of the assay. This time point was the same as that used for test compounds and, within the linear range, the endpoint represents a change in velocity.
For the above assay, SIRT1 protein was expressed and purified as follows. The SirT1 gene was cloned into a T7-promoter containing vector and transformed into BL21(DE3). The protein was expressed by induction with 1 mM IPTG as an N-terminal His-tag fusion protein at 18° C. overnight and harvested at 30,000×g. Cells were lysed with lysozyme in lysis buffer (50 mM Tris-HCl, 2 mM Tris[2-carboxyethyl] phosphine (TCEP), 10 μM ZnCl2, 200 mM NaCl) and further treated with sonication for 10 min for complete lysis. The protein was purified over a Ni-NTA column (Amersham) and fractions containing pure protein were pooled, concentrated and run over a sizing column (Sephadex S200 26/60 global). The peak containing soluble protein was collected and run on an Ion-exchange column (MonoQ). Gradient elution (200 mM-500 mM NaCl) yielded pure protein. This protein was concentrated and dialyzed against dialysis buffer (20 mM Tris-HCl, 2 mM TCEP) overnight. The protein was aliquoted and frozen at −80° C. until further use.
Sirtuin-modulating compounds of Formula (I) that activated SIRT1 were identified using the assay described above and are shown below in Table 1. […]

| Emax [%] | TRP Activity (EC1.5, concentration of compound required to increase SIRT1 activity by 50% over control) | TRP MAX RESP (percent maximum fold activation relative to control = 100%) | SMILES |
| --- | --- | --- | --- |
| ≥ 150 | A (EC1.5<1 μM) | – | Cc1cc(C(=O)N[C@H](C)C(F)(F)F)nc2c1N1CCC[C@@H](C1)N2C(=O)Nc1cc(OC[C@H](O)CO)ccn1 [Example 57, (9S)-N10-(4-((R)-2,3-dihydroxypropoxy)pyridin-2-yl)-4-methyl-N2-((R)-1,1,1-trifluoropropan-2-yl)-8,9-dihydro-6H-5,9-methanopyrido[2,3-b][1,4]diazocine-2,10(7H)-dicarboxamide] |
| – | B (EC1.5 1-25 μM) | A (Fold activation≥150%) | O=C(Nc1ccc(F)cn1)N1c2nc(N3CCCC(C(F)(F)F)C3)ccc2N2CCC[C@H]1C2 (single isomer, unassigned) [Example 29] |
| ≥ 150 | A (EC1.5<1 μM) | – | Cc1cc(C(=O)N[C@H](C)C(F)(F)F)nc2c1N1CCC[C@@H](C1)N2C(=O)Nc1ccc(OC[C@@H](O)CO)cn1 [Example 56, (9S)-N10-(5-((S)-2,3-dihydroxypropoxy)pyridin-2-yl)-4-methyl-N2-((R)-1,1,1-trifluoropropan-2-yl)-8,9-dihydro-6H-5,9-methanopyrido[2,3-b][1,4]diazocine-2,10(7H)-dicarboxamide] |
| ≥ 150 | A (EC1.5<1 μM) | – | Cc1ccc2c(NC(=O)N3c4nc(C(=O)NC5CC5)ccc4N4CCC[C@H]3C4)n[nH]c2n1 [Example 42, (9S)-N2-cyclopropyl-N10-(6-methyl-1H-pyrazolo[3,4-b]pyridin-3-yl)-8,9-dihydro-6H-5,9-methanopyrido[2,3-b][1,4]diazocine-2,10(7H)-dicarboxamide] |
| ≥ 150 | A (EC1.5<1 μM) | – | O=C(NC1CC1(F)F)c1ccc2c(n1)N(C(=O)Nc1cc(OC[C@H](O)CO)ccn1)[C@H]1CCCN2C1 (single isomer, unassigned) [Example 50] |
| – | A (EC1.5<1 μM) | – | O=C(Nc1ncccn1)N1c2nc(N3CCCC(C(F)(F)F)C3)ccc2N2CCC[C@H]1C2 (single isomer, unassigned) [Example 22] |
| ≥ 150 | A (EC1.5<1 μM) | – | O=C(Nc1ccccn1)N1c2nc(-c3cccc(C(F)(F)F)c3)c(Cl)cc2N2CCC[C@H]1C2 [Example 63, (9S)-3-chloro-N-(pyridin-2-yl)-2-(3-(trifluoromethyl)phenyl)-8,9-dihydro-6H-5,9-methanopyrido[2,3-b][1,4]diazocine-10(7H)-carboxamide] |
| ≥ 150 | A (EC1.5<1 μM) | – | O=C(Nc1cccc(OC[C@H](O)CO)n1)N1c2nc(-c3cccc(C(F)(F)F)c3)c(Cl)cc2N2CCC[C@H]1C2 [Example 65, (9S)-3-chloro-N-(6-((R)-2,3-dihydroxypropoxy)pyridin-2-yl)-2-(3-(trifluoromethyl)phenyl)-8,9-dihydro-6H-5,9-methanopyrido[2,3-b][1,4]diazocine-10(7H)-carboxamide] |
| ≥ 150 | A (EC1.5<1 μM) | – | Cc1cc(-c2cc(C)c3c(n2)N(C(=O)Nc2cccnc2)[C@H]2CCCN3C2)ccn1 [Example 90, (9S)-4-methyl-2-(2-methylpyridin-4-yl)-N-(pyridin-3-yl)-8,9-dihydro-6H-5,9-methanopyrido[2,3-b][1,4]diazocine-10(7H)-carboxamide] |
| ≥ 150 | A (EC1.5<1 μM) | – | O=C(Nc1nccc(OC[C@@H](O)CO)n1)N1c2nc(-c3cccc(C(F)(F)F)c3)c(Cl)cc2N2CCC[C@H]1C2 [Example 75] |
| ≥ 150 | A (EC1.5<1 μM) | – | O=C(Nc1ccc(OC[C@H](O)CO)nc1)N1c2nc(-c3cccc(C(F)(F)F)c3)c(Cl)cc2N2CCC[C@H]1C2 [Example 79, (9S)-3-chloro-N-(6-((R)-2,3-dihydroxypropoxy)pyridin-3-yl)-2-(3-(trifluoromethyl)phenyl)-8,9-dihydro-6H-5,9-methanopyrido[2,3-b][1,4]diazocine-10(7H)-carboxamide] |
| ≥ 150 | A (EC1.5<1 μM) | – | O=C(Nc1cnc(OC[C@H](O)CO)cn1)N1c2nc(-c3cccc(C(F)(F)F)c3)c(Cl)cc2N2CCC[C@H]1C2 [Example 73, (9S)-3-chloro-N-(5-((R)-2,3-dihydroxypropoxy)pyrazin-2-yl)-2-(3-(trifluoromethyl)phenyl)-8,9-dihydro-6H-5,9-methanopyrido[2,3-b][1,4]diazocine-10(7H)-carboxamide] |
| ≥ 150 | A (EC1.5<1 μM) | – | COc1cncc(NC(=O)N2c3nc(-c4ccnc(C)c4)ccc3N3CCC[C@H]2C3)n1 [Example 20, (9S)-N-(6-methoxypyrazin-2-yl)-2-(2-methylpyridin-4-yl)-8,9-dihydro-6H-5,9-methanopyrido[2,3-b][1,4]diazocine-10(7H)-carboxamide] |
| ≥ 150 | B (EC1.5 1-25 μM) | – | O=C(NC1CC1)c1nc2c(cc1Cl)N1CCC[C@@H](C1)N2C(=O)Nc1ccccn1 [Example 33, (9S)-3-chloro-N2-cyclopropyl-N10-(pyridin-2-yl)-8,9-dihydro-6H-5,9-methanopyrido[2,3-b][1,4]diazocine-2,10(7H)-dicarboxamide] |
| ≥ 150 | A (EC1.5<1 μM) | – | O=C(Nc1ncc(OC[C@@H](O)CO)cn1)N1c2nc(-c3cccc(C(F)(F)F)c3)c(Cl)cc2N2CCC[C@H]1C2 [Example 92, (9S)-3-chloro-N-(5-((S)-2,3-dihydroxypropoxy)pyrimidin-2-yl)-2-(3-(trifluoromethyl)phenyl)-8,9-dihydro-6H-5,9-methanopyrido[2,3-b][1,4]diazocine-10(7H)-carboxamide] |

| SMILES | Emax [%] | TRP Activity (EC1.5, concentration of compound required to increase SIRT1 activity by 50% over control) | TRP MAX RESP (percent maximum fold activation relative to control = 100%) |
| --- | --- | --- | --- |
| O=C(Nc1cccnc1)N1c2nc(N3CCCC(C(F)(F)F)C3)ccc2N2CCC[C@H]1C2 (single isomer, unassigned) [Example 28] | – | A (EC1.5<1 μM) | – |
